Assay results from patent publication US20250228882A1, “ORALLY-BIOAVAILABLE NUCLEOSIDE ANALOGS” (Venatorx Pharmaceuticals, Inc., priority 2022, published 2025).
Like-named read-outs stand apart in the source and are kept apart here.

Assay: Bidirectional Caco-2 permeability assay
Format: in vitro ADME
Details: human
Description: The bidirectional permeability of compounds across the Caco-2 cell monolayer was assessed. The Caco-2 model is a widely used in vitro model for small intestinal absorption and potential for efflux. Cell culture. Caco-2 cells were grown in DMEM supplemented with 10% fetal bovine serum (FBS), 1% Penicillin-Streptomycin and 1% MEMNEAA. The cells were incubated at 37° C., 5% CO2/95% air and saturated humidity. After reaching 80-90% confluency, the cells were gently detached with trypsin. Cells at passage 39 were seeded on the 24-well BD insert system at the density of 8×10^4 cells/cm^2 and cultured for 19 days with medium changed every 2-3 days. Measure the transepithelial electrical resistance (TEER) value of each well. The wells can be used only when their TEER values are greater than 600 Ohms/cm^2.
Transport assay. After removing the cell culture medium from the 24-well insert plate, the cells were rinsed with warm transport buffer. Appropriate dosing and receiving solutions were applied to the donor and receiver chambers to initiate the transport assay in apical to basolateral (A to B) or basolateral to apical (B to A) directions (500 and 1300 μL for apical and basolateral wells, respectively). Duplicate wells in each direction were used for the test compound and control compound. The plate was incubated in CO2 incubator at 37° C., with 5% CO2/95% air and saturated humidity without shaking. The sample after 10-minute incubation was used as the To sample, and the sample after 90-minute incubation was used as the T90 sample. To and T90 samples were collected from the donor and receiver side of each well at the designed timepoint, mixed with the transport buffer and acetonitrile/MeOH (1:1, v/v) and the internal standard for LC/MS/MS analysis. All samples were vortexed and centrifuged at 4000 rpm at 4° C. for 15 minutes, diluted with pure water and stored at 4° C. before bioanalysis by LC/MS/MS.
Sample analysis. The concentrations of test compounds and control compounds in Caco-2 cells were quantitatively determined by LC/MS/MS method after protein precipitation.
Calculations. The apparent permeability (Papp, cm/s), efflux ratio (ER) and recovery parameters were calculated for Caco-2 drug transport assay using the following equations: […]
where VR is the solution volume in the receiver chamber (0.4 mL on the apical side, 1.2 mL on the basolateral side); Area is the surface area for the insert membrane, i.e., 0.3 cm^2 for the area of the monolayer; Time is incubation time, expressed in seconds, i. e., 5400 s (90 min) for the current experiment; Co is the initial concentration of test compound or peak area ratio of control compounds in the donor chamber (M); VD is the volume in the donor chambers (0.4 mL on the apical side, 1.2 mL on the basolateral side); CD and CR are the final concentrations of test compounds or peak area ratio of control compounds in donor and receiver chambers, respectively.
Compounds with Papp<1.0 are classified as low permeability, Papp between 1-10 are classified as medium permeability, and Papp>10 are classified as high permeability. An efflux ratio (ER)>2 indicates the compounds are potential substrates for intestinal cell efflux transporters.

[1] = Caco-2 monolayer, apical to basolateral, 90-minute incubation, read-out: Papp, A-B
[2] = Caco-2 monolayer, basolateral to apical, 90-minute incubation, read-out: Papp, B-A
[3] = Caco-2 monolayer, ER>2 indicates potential efflux substrate, read-out: ER (efflux ratio)

SMILES | Papp A→B at 90 min (Caco-2) [nm/s] | Papp B→A at 90 min (Caco-2) [nm/s] | efflux ratio at 90 min (Caco-2) | Papp A→B at 90 min [1] [nm/s] | Papp B→A at 90 min [2] [nm/s] | efflux ratio at 90 min [3]
CC(C)NC(=O)Nc1ncnn2c([C@]3(C#N)O[C@H](COC(=O)CC4CCCCC4)[C@@H](OC(=O)[C@@H](N)C(C)(C)C)[C@H]3O)ccc12 [Compound 4, (2R,3S,4R,5R)-5-cyano-2-((2-cyclohexylacetoxy)methyl)-4-hydroxy-5-(4-(3-isopropylureido)pyrrolo[2,1-f][1,2,4]triazin-7-yl)tetrahydrofuran-3-yl (S)-2-amino-3,3-dimethylbutanoate] | 25 | 34.8 | 1.37 | – | – | –
COC(C)(C)C(=O)Nc1ncnn2c([C@]3(C#N)O[C@H](COC(=O)Cc4ccccc4)[C@@H](OC(=O)[C@@H](N)C(C)(C)C)[C@H]3O)ccc12 [Compound 5, (2R,3S,4R,5R)-5-cyano-4-hydroxy-5-(4-(2-methoxy-2-methylpropanamido)pyrrolo[2,1-f][1,2,4]triazin-7-yl)-2-((2-phenylacetoxy)methyl)tetrahydrofuran-3-yl (S)-2-amino-3,3-dimethylbutanoate] | – | – | – | 177 | 165 | 0.93
CCOC(C)(C)C(=O)Nc1ncnn2c([C@]3(C#N)O[C@H](COC(=O)Cc4ccccc4)[C@@H](OC(=O)[C@@H](N)C(C)(C)C)[C@H]3O)ccc12 [Compound 6, (2R,3S,4R,5R)-5-cyano-5-(4-(2-ethoxy-2-methylpropanamido)pyrrolo[2,1-f][1,2,4]triazin-7-yl)-4-hydroxy-2-((2-phenylacetoxy)methyl)tetrahydrofuran-3-yl (S)-2-amino-3,3-dimethylbutanoate] | – | – | – | 140 | 154 | 1.1
CCOC(C)(C)C(=O)Nc1ncnn2c([C@]3(C#N)O[C@H](COC(=O)CC4CCCCC4)[C@@H](OC(=O)[C@@H](N)C(C)(C)C)[C@H]3O)ccc12 [Compound 7, (2R,3S,4R,5R)-5-cyano-2-((2-cyclohexylacetoxy)methyl)-5-(4-(2-ethoxy-2-methylpropanamido)pyrrolo[2,1-f][1,2,4]triazin-7-yl)-4-hydroxytetrahydrofuran-3-yl (S)-2-amino-3,3-dimethylbutanoate] | 78.2 | 84.1 | 1.07 | – | – | –
CCC(CC)C(=O)Nc1ncnn2c([C@]3(C#N)O[C@H](COC(=O)Cc4ccccc4)[C@@H](OC(=O)[C@@H](N)C(C)(C)C)[C@H]3O)ccc12 [Compound 8, (2R,3S,4R,5R)-5-cyano-5-(4-(2-ethylbutanamido)pyrrolo[2,1-f][1,2,4]triazin-7-yl)-4-hydroxy-2-((2-phenylacetoxy)methyl)tetrahydrofuran-3-yl (S)-2-amino-3,3-dimethylbutanoate] | – | – | – | 5.2 | 1.3 | 0.26
CC[C@H](C)C(=O)Nc1ncnn2c([C@]3(C#N)O[C@H](COC(=O)Cc4ccccc4)[C@@H](OC(=O)[C@@H](N)C(C)(C)C)[C@H]3O)ccc12 [Compound 10, (2R,3S,4R,5R)-5-cyano-4-hydroxy-5-(4-((S)-2-methylbutanamido)pyrrolo[2,1-f][1,2,4]triazin-7-yl)-2-((2-phenylacetoxy)methyl)tetrahydrofuran-3-yl (S)-2-amino-3,3-dimethylbutanoate] | – | – | – | 5.9 | 1 | 0.17
CC[C@@H](C)C(=O)Nc1ncnn2c([C@]3(C#N)O[C@H](COC(=O)CC4CCCCC4)[C@@H](OC(=O)[C@@H](N)C(C)(C)C)[C@H]3O)ccc12 [Compound 12, (2R,3S,4R,5R)-5-cyano-2-((2-cyclohexylacetoxy)methyl)-4-hydroxy-5-(4-((R)-2-methylbutanamido)pyrrolo[2,1-f][1,2,4]triazin-7-yl)tetrahydrofuran-3-yl (S)-2-amino-3,3-dimethylbutanoate] | 34.8 | 255 | 7.34 | – | – | –
CC[C@H](C)C(=O)Nc1ncnn2c([C@]3(C#N)O[C@H](COC(=O)CC4CCCCC4)[C@@H](OC(=O)[C@@H](N)C(C)(C)C)[C@H]3O)ccc12 [Compound 13, (2R,3S,4R,5R)-5-cyano-2-((2-cyclohexylacetoxy)methyl)-4-hydroxy-5-(4-((S)-2-methylbutanamido)pyrrolo[2,1-f][1,2,4]triazin-7-yl)tetrahydrofuran-3-yl (S)-2-amino-3,3-dimethylbutanoate] | 31.6 | 305 | 9.68 | – | – | –
CC(C)[C@@H](C)C(=O)Nc1ncnn2c([C@]3(C#N)O[C@H](COC(=O)CC4CCCCC4)[C@@H](OC(=O)[C@@H](N)C(C)(C)C)[C@H]3O)ccc12 [Compound 14, (2R,3S,4R,5R)-5-cyano-2-((2-cyclohexylacetoxy)methyl)-5-(4-((R)-2,3-dimethylbutanamido)pyrrolo[2,1-f][1,2,4]triazin-7-yl)-4-hydroxytetrahydrofuran-3-yl (S)-2-amino-3,3-dimethylbutanoate] | 19.6 | 13.8 | 0.7 | – | – | –
CC(C)[C@H](C)C(=O)Nc1ncnn2c([C@]3(C#N)O[C@H](COC(=O)CC4CCCCC4)[C@@H](OC(=O)[C@@H](N)C(C)(C)C)[C@H]3O)ccc12 [Compound 15, (2R,3S,4R,5R)-5-cyano-2-((2-cyclohexylacetoxy)methyl)-5-(4-((S)-2,3-dimethylbutanamido)pyrrolo[2,1-f][1,2,4]triazin-7-yl)-4-hydroxytetrahydrofuran-3-yl (S)-2-amino-3,3-dimethylbutanoate] | 19.3 | 17.6 | 0.91 | – | – | –
CC(C)[C@@H](C)C(=O)Nc1ncnn2c([C@]3(C#N)O[C@H](COC(=O)Cc4ccccc4)[C@@H](OC(=O)[C@@H](N)C(C)(C)C)[C@H]3O)ccc12 [Compound 21, (2R,3S,4R,5R)-5-cyano-5-(4-((R)-2,3-dimethylbutanamido)pyrrolo[2,1-f][1,2,4]triazin-7-yl)-4-hydroxy-2-((2-phenylacetoxy)methyl)tetrahydrofuran-3-yl (S)-2-amino-3,3-dimethylbutanoate] | – | – | – | 31 | 210 | 6.77
CC(C)[C@H](C)C(=O)Nc1ncnn2c([C@]3(C#N)O[C@H](COC(=O)Cc4ccccc4)[C@@H](OC(=O)[C@@H](N)C(C)(C)C)[C@H]3O)ccc12 [Compound 22, (2R,3S,4R,5R)-5-cyano-5-(4-((S)-2,3-dimethylbutanamido)pyrrolo[2,1-f][1,2,4]triazin-7-yl)-4-hydroxy-2-((2-phenylacetoxy)methyl)tetrahydrofuran-3-yl (S)-2-amino-3,3-dimethylbutanoate] | – | – | – | 27.9 | 61 | 2.19
CC(C)NC(=O)Nc1ncnn2c([C@]3(C#N)O[C@H](COC(=O)Cc4ccccc4)[C@@H](OC(=O)[C@@H](N)C(C)(C)C)[C@H]3O)ccc12 [Compound 29, (2R,3S,4R,5R)-5-cyano-4-hydroxy-5-(4-(3-isopropylureido)pyrrolo[2,1-f][1,2,4]triazin-7-yl)-2-((2-phenylacetoxy)methyl)tetrahydrofuran-3-yl (S)-2-amino-3,3-dimethylbutanoate] | – | – | – | 16.9 | 196 | 11.6
